How the values were obtained:
Assay type in all cases: cell-based
[1] = system: AKT and STAT3 phosphorylation in sphere cultured SKOV3ip1 cells; test: immunostaining of AKT and STAT3 phosphorylation, sphere culture; conditions: for phosphorylated AKT at Ser473: sphere cultured, 5 μM BGJ398, 3 μM TAE648, 5 μM imatinib, 72 hours (FIG. 6)
From the text: In order to identify whether a change in signaling pathways associated with cell survival appears or not according to 2D monolayer culture (2D MC) and 3D sphere culture (3D SC), immunostaining was implemented. More particularly, after culturing SKOV3ip1 cells (1×10^6) by 2D monolayer culture or 3D sphere culture described in section 1.1, expression of cell-signaling molecules including AKT, STAT3, p42/44 ERK and p38 MAPK was detected and activation states in the monolayer cultured cells and the sphere cultured cells were compared. The monolayer cultured or sphere cultured SKOV3ip1 cells were harvested and washed once with ice-cold 1× phosphate buffered saline, followed by dissolving the same in 100 μl ice-cold RIPA buffer (20 mM Tris-Cl, pH 8.0, 125 mM NaCl, […], 1 mM ethylene diamine tetraacetic acid, 1% Triton X-100, 0.5% sodium deoxycholate, 0.1% sodium dodecyl sulfate, 1× complete protease inhibitor cocktail (Roche, Mannheim, Germany)) on ice. After assessing the protein concentration using a Bradford Protein assay kit (Biorad, CA, USA), the same amount of proteins (30 μg) was separated by SDS-PAGE and moved to a nitrocellulose membrane, followed by immunostaining the same using a horseradish peroxide conjugated second antibody and a specific antibody. An immune activation band was detected with SuperSignal West Pico Chemiluminescent Substrate (Thermo, IL, USA) using a Fusion Solo chemiluminescence analyzer (Vilber Rourmat Marne la Vallee, France). Antibodies to STAT3 (H-190), STAT3 (B-7) phosphorylated at Tyr705 and actin (C-2) were purchased from Santa Cruz Biotechnology. Rabbit monoclonal antibodies on AKT, AKT (D9E) phosphorylated at Ser473, FGFR1 phosphorylated at Tyr 653/654, p42/44 MAPK, phosphorylated p42/44 MAPK, p38 MAPK and p38 MAPK phosphorylated at Tyr 180/182 were purchased from Cell Signaling Technology (MA, USA). Further, HRP-conjugated goat anti-mouse and rabbit secondary antibodies were purchased from Jackson Laboratories, while BGJ398 used in the experiment (against FGFR1/2/3) was purchased from Selleckchem (USA).
Under this ground, in order to determine whether BGJ398 can vary the state of AKT and STAT3 in the sphere cultured SKOV3ip1 cells, the monolayer cultured (MC) or sphere cultured (SC) SKOV3ip1 cells were subjected to treatment using 5 μM BGJ398, followed by examining the degree of phosphorylation due to the above treatment.
Further, the sphere cultured SKOV3ip1 cells were treated with 5 μM BGJ398 (BGJ), 3 μM TAE648 (TAE) and 5 μM imatinib (IMT), respectively. After 72 hours, a cell lysate was obtained and subjected to immunostaining, followed by analyzing active cellular expression of AKT and STAT3 with the antibody for the same. Further, a phosphorylation level of FGFR1 was used as a positive control group relative to BGJ treatment groups while actin was used as a loading control group. The immunostaining assay procedure was implemented in the same manner as in Example 1.
Since the cell survival of the sphere cultured SKOV3ip1 cells is inhibited by BGJ398 treatment, whether such cell survival inhibition is intermediated through JAK/STAT3 signaling pathway was further examined. […]

[2] = system: sphere cultured SKOV3ip1 ovarian cancer cells; test: crystal violet cell viability, 3D sphere culture; conditions: for cell viability: sphere cultured SKOV3ip1, 72 hours, different concentrations, crystal violet colorimeter (FIG. 3)
Procedure: (§1) For 3D sphere culture, SKOV3ip1 cells (1×10^6) were dispensed on ultra-low adherent 6-well plate (Corning NY, USA), and then, cultured in 5% CO2 incubator using RPMI 1640 medium supplemented with 10% fetal bovine serum (Gibco, NY, USA) and 10 U/ml penicillin/streptomycin (Gibco).
In order to assess the cell viability in the sphere cultured cells, the SKOV3ip1 cells (5×10^4) were dispensed on the super-low adherent 24-well plate and cultured overnight. The cells were harvested from each well and the commercial 24-well plate was moved, followed by further incubation for 12 hours. The adhered and visualized cells were stained with 0.2% crystal violet solution for 20 minutes while gently agitating the same. The stained cells were washed with distilled water until a clean background is observed. For assessment using a colorimeter, the crystal violet dye was extracted with 1% SDS/PBS and absorbance was measured at 570 nm wavelength by EMax PLUS microplate reader (Molecular Device, USA).
(§2) The monolayer cultured or sphere cultured SKOV3ip1 cells were treated with the tyrosine kinase inhibitor and paclitaxel for 72 hours, the cell viability was determined by the crystal violet colorimeter, and results thereof are shown in FIG. 3.
Since the cell survival of the sphere cultured SKOV3ip1 cells is inhibited by BGJ398 treatment, whether such cell survival inhibition is intermediated through JAK/STAT3 signaling pathway was further examined. For this purpose, the selective JAK tyrosine kinase inhibitor AG490 was used at different concentrations of 3.125 to 50 μM in order to treat the monolayer cultured or sphere cultured SKOV3ip1 cells, and after 72 hours, whether it affects the cell viability and AKT and STAT3 activation was examined through crystal violet staining and immunostaining assay, and results thereof are shown in FIG. 7. Actin was used as a loading control group.
Under this ground, when administering BGJ398 in combination with paclitaxel typically used as the existing primary anticancer drug for ovarian cancer, whether paclitaxel resistance of the sphere cultured cells is overcome and improved was determined.

[3] = system: monolayer cultured SKOV3ip1 ovarian cancer cells; test: crystal violet cell viability, 2D monolayer culture; conditions: monolayer cultured SKOV3ip1, 72 hours, different concentrations, crystal violet colorimeter (FIG. 3)
Procedure: 2D monolayer culture was implemented in the following manner: cells were cultured at 37° C., 5% CO2 humidified atmosphere using RPMI 1640 medium (Corning, NY, USA) supplemented with 10% fetal bovine serum (Gibco, NY, USA) and 10 U/ml penicillin/streptomycin.
Crystal violet staining was implemented to determine the cell viability in the monolayer cultured cell model and sphere cultured cell model. In order to implement the crystal violet staining in the monolayer culture model, SKOV3ip1 cells (5×10^4) were dispensed in commercial 24-well plates and incubated overnight. Thereafter, the drug was dispensed with a desired concentration for experiment into each well, followed by further incubation for 72 hours. 300 μl of 0.2% crystal violet solution was added to each well, followed by further incubation for 20 minutes while gently stirring the same. The stained cells were washed with distilled water until a clean background is observed. For assessment using a colorimeter, the crystal violet dye was extracted with 1% SDS/PBS and absorbance was measured at 570 nm wavelength by EMax PLUS microplate reader (Molecular Device, USA).
as §2

[4] = system: sphere cultured SKOV3ip1 cells; test: microscopic observation of aggregated (spheroid) form; conditions: 5 μM BGJ398, 3 μM TAE648, 5 μM imatinib (FIG. 5)
Procedure: as §1

SKOV3ip1 = test: crystal violet staining assay, cisplatin and BGJ398, 2D culture; conditions: SKOV3ip1, 2D culture, cisplatin alone (FIG. 29)
Procedure: (§3) According to the same procedures as described in the previous examples, each cell line was subjected to 2D culture and a change thereof upon administration of cisplatin alone, BGJ398 alone or in combination with cisplatin was analyzed through crystal violet staining assay.

SKOV3-TR = test: as above; conditions: 2D culture, cisplatin alone (FIG. 29)
Procedure: as §3

[5] = system: SKOV3-TR ovarian cancer cells; test: crystal violet cell viability in paclitaxel-resistant cells
Procedure: SKOV3-TR cell line was offered from Sood AK in MD-Anderson Cancer Center (USA) and then used in the present experiments.
Paclitaxel resistance of each of SKOV3 and SKOV3-TR was determined by measuring the cell viability through crystal violet colorimetric assay. This experiment was implemented three times and a difference in results thereof was estimated by student's t-test.
(§4) According to the same procedures as described in the previous examples, each cell line was divided and cultured by 2D monolayer culture and 3D sphere culture, respectively. Then, a change due to administration of BGJ398 alone or in combination with paclitaxel was analyzed through morphological analysis and crystal violet staining assay.

[6] = system: SKOV3-TR ovarian cancer cells; test: microscopic analysis of cell shape change due to cytotoxicity; conditions: single agent: 2.5 μM BGJ398 or 50 nM paclitaxel (FIG. 20)
Procedure: as §4
FIG. 20 illustrates a change in cell shape due to cytotoxicity under microscopic analysis, when paclitaxel alone, BGJ398 alone or in combination with paclitaxel was administered to SKOV3-TR ovarian cancer cells.

In the case of `N#C/C(=C\c1ccc(O)c(O)c1)C(=O)NCc1ccccc1` [AG490, reference compound], the “AKT and STAT3 phosphorylation” value ([1]; sphere cultured SKOV3ip1, 5 μM BGJ398 (FIG. 6), AG490, 72 hours (FIG. 7B)) is reported as “not inhibited” and the cell growth ([2]; sphere cultured SKOV3ip1, AG490 3.125 to 50 μM, 72 hours (FIG. 7A)) is reported as “did not suppress cell growth”.

In the case of `COc1cc(N2CCC(N3CCN(C)CC3)CC2)ccc1Nc1ncc(Cl)c(Nc2ccccc2S(=O)(=O)C(C)C)n1` [TAE684], the cell viability [3] is reported as “reduced by paclitaxel and TAE648 in a dose-dependent manner”, the “aggregated (spheroid) form of cells” value [4] is reported as “spheroid degradation was not observed” and the “phosphorylated AKT at Ser473” value [1] is reported as “did not show such effects”. For the same compound, the cell viability [2] was “TAE648 resistance was not identified”.

`N.N.[Cl][Pt][Cl]` [cisplatin, reference compound] was tested, and the sensitivity to cisplatin (SKOV3ip1) was “exhibit sensitivity to cisplatin” and the sensitivity to cisplatin (SKOV3-TR) was “exhibit sensitivity to cisplatin”.

With `Cc1ccc(NC(=O)c2ccc(CN3CCN(C)CC3)cc2)cc1Nc1nccc(-c2cccnc2)n1` [imatinib] the cell viability [3] was “not effected”, the “aggregated (spheroid) form of cells” value [4] was “spheroid degradation was not observed” and the “phosphorylated AKT at Ser473” value [1] was “did not show such effects”. The cell viability [2] was “did not affect the cell viability”.

For `CC(=O)O[C@H]1C(=O)[C@@]2(C)[C@H]([C@H](OC(=O)c3ccccc3)[C@]3(O)C[C@H](OC(=O)[C@H](O)[C@@H](NC(=O)c4ccccc4)c4ccccc4)C(C)=C1C3(C)C)[C@]1(OC(C)=O)CO[C@@H]1C[C@@H]2O` [paclitaxel, reference compound], the cell viability [3] was “reduced by paclitaxel and TAE648 in a dose-dependent manner”, the paclitaxel resistance ([5]; SKOV3-TR compared with SKOV3, crystal violet colorimetric assay (FIG. 15)) was “significantly higher than SKOV cell line” and the anticancer activity ([5]; paclitaxel alone (FIGS. 18, 19)) was “negligible”. The “cytotoxicity and morphological change” value [6] was “negligible cytotoxicity and no morphological change” and the cell viability [2] was “more obviously resistant to paclitaxel than the monolayer cultured SKOV3ip1 cells”.
